In article PMC8665847 (European Journal of Medicinal Chemistry, 2021):

Columns and labels:
SARS-CoV-2 3CL^pro = SARS-CoV-2 3CL^pro (Severe acute respiratory syndrome coronavirus 2, UniProt P0DTD1); test: biochemical; type: biochemical; conditions: for time dependence of the level of inhibition: incubation time 0-60 min, inhibitor close to its IC50 concentration (Fig. S4)
3CL^pro = 3CL^pro (Severe acute respiratory syndrome coronavirus 2, UniProt P0DTD1); test: LC-MS detection of 3CLpro-inhibitor covalent adducts; type: binding, SARS-CoV-2
SARS-CoV 3CL^pro = conditions: cited from earlier work

C=CS(=O)(=O)N(c1ccc(C(C)(C)C)cc1)[C@@H](C(=O)N[C@@H](C)c1ccccc1)c1cccnc1 (mixture of isomers) [14g, (S)- and (R)-2-(N-(4-(tert-butyl)phenyl)vinylsulfonamido)-N-((S)-1-phenylethyl)-2-(pyridin-3-yl)acetamide]
inhibition at 50 µM (SARS-CoV-2 3CL^pro): > 95% | times more potent than diastereomer 14h (SARS-CoV-2 3CL^pro; ratio of IC50): approximately 20 times

C=CS(=O)(=O)N(c1ccc(C(C)(C)C)cc1)[C@H](C(=O)N[C@@H](C)c1ccccc1)c1cccnc1 (mixture of isomers) [14h, (S)- and (R)-2-(N-(4-(tert-butyl)phenyl)vinylsulfonamido)-N-((S)-1-phenylethyl)-2-(pyridin-3-yl)acetamide]
inhibition at 50 µM (SARS-CoV-2 3CL^pro): > 95%

C=CC(=O)N(c1ccc(C(C)(C)C)cc1)C(C(=O)NC1CCCCC1)c1cccnc1 (stereo not drawn) [6a, N-(4-(tert-butyl)phenyl)-N-(2-(cyclohexylamino)-2-oxo-1-(pyridin-3-yl)ethyl) acrylamide]
IC50 (SARS-CoV-2 3CL^pro): 11.1 ± 1.5 µM

C=CS(=O)(=O)N(c1ccc(C(C)(C)C)cc1)C(C(=O)NC1CCCCC1)c1cccnc1 (stereo not drawn) [14a, 2-(N-(4-(tert-butyl)phenyl)vinylsulfonamido)-N-cyclohexyl-2-(pyridin-3-yl)acetamide]
IC50 (SARS-CoV-2 3CL^pro): 0.5 µM | time dependence of the level of inhibition (SARS-CoV-2 3CL^pro): increased with incubation time | presence of 3CLpro-inhibitor adduct by LC-MS (3CL^pro): confirmed

CC(C)(C)c1ccc(N(C(=O)CCl)C(C(=O)NC2CCCCC2)c2cccnc2)cc1 (stereo not drawn) [16a, N-(4-(tert-butyl)phenyl)-2-chloro-N-(2-(cyclohexylamino)-2-oxo-1-(pyridin-3-yl)ethyl) acetamide]
time dependence of the level of inhibition (SARS-CoV-2 3CL^pro): increased with incubation time | presence of 3CLpro-inhibitor adduct by LC-MS (3CL^pro): confirmed

CC(C)(C)c1ccc(N(C(=O)C#CCO)C(C(=O)NC2CCCCC2)c2cccnc2)cc1 (stereo not drawn) [23a, N-(4-(tert-butyl)phenyl)-N-(2-(cyclohexylamino)-2-oxo-1-(pyridin-3-yl)ethyl)-4-hydroxybut-2-ynamide]
improvement in potency over alkynylamide analogue 13a (SARS-CoV-2 3CL^pro; ratio of IC50): ~10 fold

CC(C)(C)c1ccc(N(C(=O)c2c[nH]cn2)C(C(=O)NC2CCCCC2)c2cccnc2)cc1 (stereo not drawn) [X77, N-(4-(tert-butyl)phenyl)-N-(2-(cyclohexylamino)-2-oxo-1-(pyridin-3-yl)ethyl)-1H-imidazole-5-carboxamide]
IC50 (SARS-CoV 3CL^pro): 3.4 µM
